Assay results published in patent US12568971B2, “Degradative method” (Catexel Technologies Limited, priority 2020, dated 2026).

Legend:
[1] = at 20° C.; cited from earlier work
[2] = cited from earlier work
[3] = Dynamic viscosity of alginate solution after treatment (alginate depolymerisation), Brookfield cone/plate viscometer; conditions: 60 min at 50° C.
Description: The bottle was placed in a warm water bath (50° C.) for 60 minutes before being removed and cooled in an ice bath. Finally, the dynamic viscosity was determined using a Brookfield viscosity meter as outlined below. Note 1: A 2 mM solution of [[…])2 (see description of stock 12 above) was mixed with equivalent volume of the 2 mM ascorbic acid stock solution (stock solution 7). Upon contact with the ascorbic acid, the catalyst turned from orange/red to red/purple. Note 2: 0.5 mL of both Me3-TACN ligand (stock solution 10) and MnSO4·H2O (stock solution 8) were mixed, stirred and used as a source of catalyst to be placed in the alginate solution. The dynamic viscosity of the samples was measured using a Brookfield HBDV-II cone/plate viscosity meter equipped with a spindle CPE-40. The viscometer was linked to a water bath to maintain the temperature at 25° C. The apparatus was controlled via computer (external mode) using the Rheocalc software. Initially, the viscometer was zeroed without spindle. Then, the spindle CPE-40 was installed and the gap between the bottom of the cone and the top of the cup was set according to the recommendations given by Brookfield. 0.5 mL of the treated alginate solution was placed in the cup of the viscometer using a disposable plastic syringe before the apparatus was closed and the test program launched. […] Results.

Compound: [Mn^IVMn^IV(μ-O)3(Me3-TACN)2][PF6]2
- water solubility [1]: 10.8 mg/mL

Compound: O=C(O)[C@@H]1O[C@@H](O)[C@@H](O)[C@@H](O)[C@@H]1O [α-L-guluronic acid]
- pKa [2]: 3.65

Compound: CC(=O)[O-].CN1CCN(C)CCN(CCN2CCN(C)CCN(C)CC2)CC1.[Cl-].[Cl-].[Mn+3].[Mn+4].[O-2].[O-2] [[Mn2(μ-O)2(μ-CH3COO)(Me4-DTNE)]^2+, [Mn2(μ-O)2(μ-CH3COO)(Me4DTNE)]Cl2]
- Dynamic Viscosity ([3]; 2.5 μM, pH 7.5, 10 mM H2O2, no buffer): 82.3 mPa · s
- Dynamic Viscosity ([3]; 2.5 μM, pH 8.0, 10 mM H2O2, no buffer): 82.9 mPa · s
- Dynamic Viscosity ([3]; 2.5 μM, pH 8.5, 10 mM H2O2, no buffer): 80.7 mPa · s
- Dynamic Viscosity ([3]; 5.0 μM, pH 7.5, 10 mM H2O2, no buffer): 49.4 mPa · s
- Dynamic Viscosity ([3]; 5.0 μM, pH 8.0, 10 mM H2O2, no buffer): 53.7 mPa · s
- Dynamic Viscosity ([3]; 5.0 μM, pH 8.5, 10 mM H2O2, no buffer): 51.5 mPa · s
- Dynamic Viscosity ([3]; 5.0 μM, pH 9.0, 10 mM H2O2, no buffer): 62.9 mPa · s

Compound: O=C(O)[C@H]1O[C@@H](O)[C@@H](O)[C@@H](O)[C@@H]1O [β-D-mannuronic acid]
- pKa [2]: 3.38

Compound: O=S(=O)([O-])[O-].[Mn+2] [MnSO4, manganese sulfate]
- Dynamic Viscosity ([3]; Entry 1: 10 μM MnSO4, 10 μM Me3TACN ligand, 20 mM H2O2, 4.7 mM NaHCO3, pH 10): 85.4 mPa · s
- Dynamic Viscosity ([3]; Entry 2: 10 μM MnSO4, 20 μM Me3TACN ligand, 20 mM H2O2, 4.7 mM NaHCO3, pH 10): 76.1 mPa · s
- Dynamic Viscosity ([3]; Entry 3: 10 μM MnSO4, 40 μM Me3TACN ligand, 20 mM H2O2, 4.7 mM NaHCO3, pH 10): 63.4 mPa · s
